Laboratory results taken from US20030060508A1, “Polyunsaturated fatty acid fractions of Nigella sativa L. seeds” (priority 2000, published 2003).

Tests used:
Salmonella typhi murium = assay: Comparative antibacterial activity with ampicillin, bore method; type: cell-based; conditions: Salmonella enterica, read-out: Diameter of Zone of Inhibition
Method: (§1) […] The values are the average of three separate experiments. The anti-bacterial activity of the tested isolates was detected in vitro using the bore method. The nutrient agar medium containing one bacterial strain was poured into sterilized petri-dishes, each 20×120 mm, then left for 10 minutes to dry. Using the borer No. 5, a central bore was made in each plate, then another 4 were arranged it. The effect of different concentrations of the tested isolates on certain microorganisms was tested in 2 plates.
(§2) The comparative antibacterial activity of ampicillin and the Nigella sativa L. polyunsaturated fatty acid fraction against certain bacterial strains (Streptococcus pyogenes, Corynebacterium pyogenes and Salmonella typhi murium) was preformed in vitro using the bore method as described by Cooper and Woodman (1964) as previously described. The effect of ampicillin (1 μg/mL) and the Nigella sativa L. polyunsaturated fatty acid fraction (at 1 mg/ml) on the previously mentioned bacteria was tested.

Corynebacterium pyogenes = assay: as above; type: cell-based; conditions: 1 μg/mL, read-out: Diameter of Zone of Inhibition
Method: as §1, §2

Streptococcus pyogenes = assay: as above; type: cell-based; conditions: 1 μg/mL, read-out: Diameter of Zone of Inhibition
Method: as §1, §2

[1] = test system: writhing induced by parabenzoquinone; assay: analgesic activity, writhing method; type: in vivo, mice; conditions: 5.0 mg/100 g.b.w.
Method: The analgesic activity of the Nigella sativa L. polyunsaturated fatty acid fraction was studied using the writhing method described by Okun et al. (1963). Thirty mature mice of both sexes weighing from 20 to 25 gm were divided into 3 groups of 10 mice each. The first group served as a control and the second group served as a standard (treated with paracetamol in a dose of 5 mg/100 gm body weight). The third group was injected subcutaneously with the Nigella sativa L. polyunsaturated fatty acid fraction. After 30 minutes, mice were injected intraperitoneally with 0.25 ml of a solution of parabenziquinone (0.2 mg/ml in saline). […] Animals devoid of writhing in each group were recorded and the analgesic potencies of paracetamol and the Nigella sativa L. polyunsaturated fatty acid fraction were determined as percent protection against writhing.

rat paw formalin edema = assay: anti-inflammatory activity, rat paw formalin edema; type: in vivo, rats; conditions: 3 mg/100 g.b.w. intraperitoneally
Method: The anti-inflammatory activity of the Nigella sativa L. polyunsaturated fatty acid fraction was carried out in rats using a modification of rat paw formalin edema as described by Domemjoz et al. (1965).
Fifteen mature albino rats of both sexes weighing 150-200 gm were divided into 3 groups of 5 rats each. At the beginning of the experiment, the thickness of the rat left hind paw was measured using a Vernier caliper. Thereafter, rats of the first group were kept as a control and those of the second group (standard) were injected intraperitoneally with phenylbutazone in a dose of 3 mg/100 gm body weight. Rats of the third group were injected with the Nigella sativa L. polyunsaturated fatty acid fraction. After 30 minutes, inflammation was induced by subcutaneous injection of 0.1 mL of 6% solution of formalin in normal saline into the left hind paw.
The anti-inflammatory effect of the Nigella sativa L. polyunsaturated fatty acid fraction was estimated by comparing the magnitude of the paw swelling in the pretreated animals with that of the control animals. Measurement of rat paw thickness was carried out at hourly intervals for a period of 3 hours.

[2] = test system: histamine-induced bronchospasm in guinea pigs; assay: protection from histamine-induced bronchospasm; type: in vivo; conditions: 239 mg/kg i.p.
Method: The anti-histamine effects of the Nigella sativa L. polyunsaturated fatty acid fraction on induced bronchospasm in guinea pigs was evaluated using the methods described by Armitage et al, Brit. J Pharmacol., 16:59-76 (1961). Willis, J. Pharm. Pharmacol., 21:126 (1969).
The prophylactic anti-allergic effects were evaluated in guinea pigs (300-400 grams). The animals were divided into 5 groups (10 animals each) and treated i.p. as follows: (1) animals treated with saline (control); (2) animals treated with diphenydramine (239 mg/kg/day); (3) animals treated with 50 mg/kg polyunsaturated fatty acid fraction; (4) animals treated with 100 mg/kg polyunsaturated fatty acid fraction; and (5) animals treated with 150 mg/kg polyunsaturated fatty acid fraction.
Animals were exposed 30 minutes after their i.p. injection of diphenydramine and polyunsaturated fatty acid fraction to histamine aerosol (1%) for 3 minutes. Bronchospasm and loss of rightening after 30, 60 and 90 minutes was calculated according to the following formula (Dawson and Sweatman, Br. J. Pharmacol., 71:387-398 (1980)): [formula]

[3] = test system: guinea pigs exposed to histamine aerosol (0.25%); assay: prophylactic anti-asthmatic effect, preconvulsive time; type: in vivo; conditions: 5 microg/kg, treated for 21 days
Method: This example explains in vivo studies to evaluate the prophylactic (protective) anti-asthmatic effect of the Nigella sativa L. polyunsaturated fatty acid fraction. The prophylactic antiasthmatic effect was evaluated in vivo by measurement of the preconvulsive time in guinea pigs exposed to histamine aerosol (0.25%).
Guinea pigs were divided into three groups with 8 animals per group. The first group received a saline injection to serve as negative control. The second group received ketotifen, which is the standard treatment to serve as positive control. The third group received 200 mg/kg of the Nigella sativa L. polyunsaturated fatty acid fraction.
Animals in all groups were treated for 21 days, after which they were exposed to histamine (0.25%) aerosol and the preconvulsive time was recorded.

[4] = test system: ova albumin inhalation in sensitized guinea pigs; assay: time to onset of tachypnea in sensitized animals; type: in vivo; conditions: 50 microg/kg, treated for 21 days
Method: The second protocol involved sensitized animals. Animals were sensitized by injecting ova albumin in two doses 100 mg. each (S.C. and I.P., simultaneously). Animals were resensitized 15 days later. Guinea pigs were divided into three groups with 8 animals per group. The first group received a saline injection to serve as negative control. The second group received ketotifen which is the standard treatment to serve as positive control. The third group received 200 mg/kg each of Nigella sativa L. polyunsaturated fatty acid fraction. Animals in all groups were treated for 21 days following which they were exposed to ova albumin inhalation and time to onset of tachypnea was recorded as shown in the table below (*Statistically significant from the control group (P<0.05)).

Structure (SMILES): CC1(C)S[C@@H]2[C@H](NC(=O)[C@H](N)c3ccccc3)C(=O)N2[C@H]1C(=O)O [Ampicillin, ampicillin]
- zone of inhibition at 1 µg/mL (Salmonella typhi murium): 13.1 ± 0.2 mm
- zone of inhibition at 1 µg/mL (Corynebacterium pyogenes): 44.7 ± 0.8 mm
- zone of inhibition at 1 µg/mL (Streptococcus pyogenes): 26.7 ± 0.3 mm

Structure (SMILES): CC(=O)Nc1ccc(O)cc1 [Paracetamol, paracetamol]
- % Protection, 120 minutes [1]: 20%
- % protection 30 minutes [1]: 100%
- % protection 60 minutes [1]: 60%
- % protection 90 minutes [1]: 40%

Structure (SMILES): CCCCC1C(=O)N(c2ccccc2)N(c2ccccc2)C1=O [Phenylbutazone, phenylbutazone]
- Rat Paw Thickness, 1 Hour (rat paw formalin edema): 5.85 ± 0.15 mm
- Rat Paw Thickness, 2 Hours (rat paw formalin edema): 5.71 ± 0.09 mm
- Rat Paw Thickness, 3 Hours (rat paw formalin edema): 5.82 ± 0.05 mm

Structure (SMILES): CN(C)CCOC(c1ccccc1)c1ccccc1 [diphenhydramine]
- % protection 30 minutes [2]: 100%
- % protection 60 minutes [2]: 100%
- % protection 90 minutes [2]: 90%

Structure (SMILES): CN1CCC(=C2c3ccccc3CC(=O)c3sccc32)CC1 [ketotifen]
- % of Prophylaxis (Protection) [3]: 82.85%
- % of Prophylaxis [4]: 44.4%
